{"source": "ChEMBL document CHEMBL3600370", "about": "“Synthesis and evaluation of novel prenylated chalcone derivatives as anti-leishmanial and anti-trypanosomal compounds” (Bioorg Med Chem Lett, 2015)", "key": {"[1]": {"system": "Leishmania amazonensis", "experiment": "Anti-leishmanial activity against Leishmania amazonensis MPRO/BR/1972/M1841-LV-79 promastigotes assessed as parasite growth inhibition incubated for 72 hrs by MTT assay", "format": "functional, organism-based", "settings": "MPRO/BR/1972/M1841-LV-79, 72 h"}, "[2]": {"experiment": "Selectivity index, ratio of EC50 for BALB/c mouse peritoneal macrophages to EC50 for Leishmania amazonensis MPRO/BR/1972/M1841-LV-79 promastigotes"}, "[3]": {"system": "Leishmania infantum", "experiment": "Anti-leishmanial activity against Leishmania infantum MHOM/BR/72 promastigotes assessed as parasite growth inhibition incubated for 72 hrs by MTT assay", "format": "functional, organism-based", "settings": "MHOM/BR/72, 72 h"}, "[4]": {"experiment": "Selectivity index, ratio of EC50 for BALB/c mouse peritoneal macrophages to EC50 for Leishmania infantum MHOM/BR/72 promastigotes"}, "[5]": {"system": "Trypanosoma cruzi", "experiment": "Anti-trypanosomal activity against Trypanosoma cruzi Y epimastigotes assessed as parasite growth inhibition incubated for 72 hrs by MTT assay", "format": "functional, organism-based"}, "[6]": {"experiment": "Selectivity index, ratio of EC50 for BALB/c mouse peritoneal macrophages to EC50 for Trypanosoma cruzi Y epimastigotes"}, "[7]": {"experiment": "Cytotoxicity against Swiss mouse peritoneal macrophages incubated for 24 hrs by MTT assay", "settings": "Peritoneal macrophage cell"}, "[8]": {"system": "Leishmania amazonensis", "experiment": "Anti-leishmanial activity against Leishmania amazonensis MPRO/BR/1972/M1841-LV-79 amastigotes infected in BALB/c mouse peritoneal macrophages assessed as reduction in the infection index incubated for 24 hrs by Giemsa staining method", "format": "functional, organism-based", "settings": "MPRO/BR/1972/M1841-LV-79, 24 h"}, "[9]": {"experiment": "Selectivity index, ratio of EC50 for BALB/c mouse peritoneal macrophages to EC50 for Leishmania amazonensis MPRO/BR/1972/M1841-LV-79 amastigotes"}, "[10]": {"system": "Leishmania infantum", "experiment": "Anti-leishmanial activity against Leishmania infantum MHOM/BR/72 amastigotes infected in BALB/c mouse peritoneal macrophages assessed as reduction in the infection index incubated for 24 hrs by Giemsa staining method", "format": "functional, organism-based", "settings": "MHOM/BR/72, 24 h"}, "[11]": {"experiment": "Selectivity index, ratio of EC50 for BALB/c mouse peritoneal macrophages to EC50 for Leishmania infantum MHOM/BR/72 amastigotes"}}, "data": [{"smiles": "O=C(/C=C/c1ccccc1O)c1ccccc1", "values": [{"measurement": "EC50", "setting": "[1]", "result": 334, "unit": "µM"}, {"measurement": "Ratio EC50", "setting": "[2]", "result": 0.43}, {"measurement": "EC50", "setting": "[3]", "result": 91.7, "unit": "µM"}, {"measurement": "Ratio EC50", "setting": "[4]", "result": 1.56}, {"measurement": "EC50", "setting": "[5]", "result": 75.9, "unit": "µM"}, {"measurement": "Ratio EC50", "setting": "[6]", "result": 1.88}, {"measurement": "EC50", "setting": "[7]", "result": 143, "unit": "µM"}]}, {"smiles": "CC(C)=CCOc1ccccc1/C=C/C(=O)c1ccccc1", "values": [{"measurement": "EC50", "setting": "[1]", "result": 4.38, "unit": "µM"}, {"measurement": "Ratio EC50", "setting": "[2]", "result": 25.41}, {"measurement": "EC50", "setting": "[8]", "result": 19.9, "unit": "µM"}, {"measurement": "Ratio EC50", "setting": "[9]", "result": 5.58}, {"measurement": "EC50", "setting": "[3]", "result": 4.69, "unit": "µM"}, {"measurement": "Ratio EC50", "setting": "[4]", "result": 23.73}, {"measurement": "EC50", "setting": "[10]", "result": 10.4, "unit": "µM"}, {"measurement": "Ratio EC50", "setting": "[11]", "result": 10.69}, {"measurement": "EC50", "setting": "[5]", "result": 21.6, "unit": "µM"}, {"measurement": "Ratio EC50", "setting": "[6]", "result": 5.16}, {"measurement": "EC50", "setting": "[7]", "result": 111, "unit": "µM"}]}, {"smiles": "CC(C)=CCC/C(C)=C/CC/C(C)=C/COc1ccccc1/C=C/C(=O)c1ccccc1", "values": [{"measurement": "EC50", "setting": "[1]", "result": 6.47, "unit": "µM"}, {"measurement": "Ratio EC50", "setting": "[2]", "result": 21.74}, {"measurement": "EC50", "setting": "[8]", "result": 2.9, "unit": "µM"}, {"measurement": "Ratio EC50", "setting": "[9]", "result": 48.5}, {"measurement": "EC50", "setting": "[3]", "result": 10.2, "unit": "µM"}, {"measurement": "Ratio EC50", "setting": "[4]", "result": 13.78}, {"measurement": "EC50", "setting": "[10]", "result": 2.24, "unit": "µM"}, {"measurement": "Ratio EC50", "setting": "[11]", "result": 62.79}, {"measurement": "EC50", "setting": "[5]", "result": 69.4, "unit": "µM"}, {"measurement": "Ratio EC50", "setting": "[6]", "result": 2.03}, {"measurement": "EC50", "setting": "[7]", "result": 141, "unit": "µM"}]}, {"smiles": "CC(C)=CCC/C(C)=C/COc1cccc(/C=C/C(=O)c2ccccc2)c1", "values": [{"measurement": "EC50", "setting": "[1]", "result": 8.92, "unit": "µM"}, {"measurement": "Ratio EC50", "setting": "[2]", "result": 9.18}, {"measurement": "EC50", "setting": "[8]", "result": 25.8, "unit": "µM"}, {"measurement": "Ratio EC50", "setting": "[9]", "result": 3.17}, {"measurement": "EC50", "setting": "[3]", "result": 7.81, "unit": "µM"}, {"measurement": "Ratio EC50", "setting": "[4]", "result": 10.49}, {"measurement": "EC50", "setting": "[10]", "result": 63.9, "unit": "µM"}, {"measurement": "Ratio EC50", "setting": "[11]", "result": 1.28}, {"measurement": "EC50", "setting": "[5]", "result": 26.2, "unit": "µM"}, {"measurement": "Ratio EC50", "setting": "[6]", "result": 3.12}, {"measurement": "EC50", "setting": "[7]", "result": 81.9, "unit": "µM"}]}, {"smiles": "CC(C)=CCC/C(C)=C/CC/C(C)=C/COc1cccc(/C=C/C(=O)c2ccccc2)c1", "values": [{"measurement": "EC50", "setting": "[1]", "result": 9.25, "unit": "µM"}, {"measurement": "Ratio EC50", "setting": "[2]", "result": 6}, {"measurement": "EC50", "setting": "[8]", "result": 21.9, "unit": "µM"}, {"measurement": "Ratio EC50", "setting": "[9]", "result": 2.52}, {"measurement": "EC50", "setting": "[3]", "result": 5.98, "unit": "µM"}, {"measurement": "Ratio EC50", "setting": "[4]", "result": 9.22}, {"measurement": "EC50", "setting": "[10]", "result": 32.5, "unit": "µM"}, {"measurement": "Ratio EC50", "setting": "[11]", "result": 1.69}, {"measurement": "EC50", "setting": "[5]", "result": 23.8, "unit": "µM"}, {"measurement": "Ratio EC50", "setting": "[6]", "result": 2.32}, {"measurement": "EC50", "setting": "[7]", "result": 55.1, "unit": "µM"}]}, {"smiles": "O=C(/C=C/c1cccc(O)c1)c1ccccc1", "note": "[3-HYDROXY CHALCONE]", "values": [{"measurement": "EC50", "setting": "[1]", "result": 412, "unit": "µM"}, {"measurement": "Ratio EC50", "setting": "[2]", "result": 0.35}, {"measurement": "EC50", "setting": "[3]", "result": 185, "unit": "µM"}, {"measurement": "Ratio EC50", "setting": "[4]", "result": 0.96}, {"measurement": "EC50", "setting": "[5]", "result": 68.3, "unit": "µM"}, {"measurement": "Ratio EC50", "setting": "[6]", "result": 2.09}, {"measurement": "EC50", "setting": "[7]", "result": 143, "unit": "µM"}]}, {"smiles": "C[C@@H]1[C@H](O)[C@@H](C)/C=C/C=C/C=C/C=C/C=C/C=C/C=C/[C@H](O[C@@H]2O[C@H](C)[C@@H](O)[C@H](N)[C@@H]2O)C[C@@H]2O[C@](O)(C[C@@H](O)C[C@@H](O)[C@H](O)CC[C@@H](O)C[C@@H](O)CC(=O)O[C@H]1C)C[C@H](O)[C@H]2C(=O)O", "note": "[AMPHOTERICIN B]", "values": [{"measurement": "EC50", "setting": "[1]", "result": 3.22, "unit": "µM"}, {"measurement": "Ratio EC50", "setting": "[2]", "result": 7.17}, {"measurement": "EC50", "setting": "[8]", "result": 4.92, "unit": "µM"}, {"measurement": "Ratio EC50", "setting": "[9]", "result": 4.7}, {"measurement": "EC50", "setting": "[3]", "result": 0.92, "unit": "µM"}, {"measurement": "Ratio EC50", "setting": "[4]", "result": 25.11}, {"measurement": "EC50", "setting": "[10]", "result": 2.98, "unit": "µM"}, {"measurement": "Ratio EC50", "setting": "[11]", "result": 7.75}, {"measurement": "EC50", "setting": "[7]", "result": 23.1, "unit": "µM"}]}, {"smiles": "O=C(Cn1ccnc1[N+](=O)[O-])NCc1ccccc1", "note": "[BENZNIDAZOLE]", "values": [{"measurement": "EC50", "setting": "[5]", "result": 4.07, "unit": "µM"}]}, {"smiles": "O=C(/C=C/c1ccccc1)c1ccccc1", "note": "[CHALCONE]", "values": [{"measurement": "EC50", "setting": "[1]", "result": 13.2, "unit": "µM"}, {"measurement": "Ratio EC50", "setting": "[2]", "result": 0.7}, {"measurement": "EC50", "setting": "[3]", "result": 8.89, "unit": "µM"}, {"measurement": "Ratio EC50", "setting": "[4]", "result": 1.06}, {"measurement": "EC50", "setting": "[5]", "result": 103, "unit": "µM"}, {"measurement": "Ratio EC50", "setting": "[6]", "result": 0.09}, {"measurement": "EC50", "setting": "[7]", "result": 9.5, "unit": "µM"}]}, {"smiles": "N=C(N)c1ccc(OCCCCCOc2ccc(C(=N)N)cc2)cc1", "note": "[PENTAMIDINE]", "values": [{"measurement": "EC50", "setting": "[1]", "result": 10.2, "unit": "µM"}, {"measurement": "Ratio EC50", "setting": "[2]", "result": 3.5}, {"measurement": "EC50", "setting": "[8]", "result": 6.25, "unit": "µM"}, {"measurement": "Ratio EC50", "setting": "[9]", "result": 5.71}, {"measurement": "EC50", "setting": "[3]", "result": 67.7, "unit": "µM"}, {"measurement": "Ratio EC50", "setting": "[4]", "result": 0.53}, {"measurement": "EC50", "setting": "[10]", "result": 19.8, "unit": "µM"}, {"measurement": "Ratio EC50", "setting": "[11]", "result": 1.81}, {"measurement": "EC50", "setting": "[7]", "result": 35.7, "unit": "µM"}]}]}
